Here are results for 6 compounds from patent US9422340B2, “Macrocyclic compounds useful as inhibitors of histone deacetylases” (The Regents of the University of Colorado, A Body Corporate, priority 2010, dated 2016).

Assay [1] deals with acetylated histone H3 in HCT116 cells. The assay can be described thus: Western blot of histone H3 hyperacetylation. In kind it is cell-based, human. To be noted: 8 hours, concentrations ranging from 1/μM to 100 nM. For orientation: Immunoblotting shows a protein as a band on a membrane.
Experimental: Cell extracts were separated via SDS-PAGE electrophoresis and the resulting bands were detected utilizing anti-acetyl-H3 antibodies. DMSO-treated cells serve as a negative control, while the expression of GAPDH was used to show equal loading. […] Cells were treated with the indicated compound for 8 hours with concentrations ranging from 1/μM to 100 nM and immunoblotted with anti-acetylhistone H3 antibody.
For western blot analysis, total protein extracts were prepared by lysing cells in lysis buffer (50 mM Tris-Cl [pH 8.0], 5 mM EDTA, 150 mM NaCl, 1% NP-40, 0.1% SDS, and 1 mM phenylmethylsulfonyl fluoride). 50 μg of total soluble proteins were separated by SDS-PAGE. Proteins were transferred to nitrocellulose membrane and the membrane was blocked for 1 hour with 4% nonfat milk, followed by overnight incubation at 4° C. with primary antibodies against acetylated histone H3 (1:1000, Upstate, #06-599), Ezrin (1:10000, Sigma, E-8897), Glyceraldehyde 3-phosphate dehydrogenase (GAPDH; 1:20000, Santa Cruz, sc-47724), histone H3 (H3; 1:1000, Santa Cruz, sc-8654). Membranes were then incubated with peroxidase conjugated secondary antibodies for one hour at room temperature. Detection was performed using Super Signal WestDura. The expression of Ezrin and GAPDH was used as loading control.
Assay [2] relates to HCT116 cells. The assay is described as follows: DNA microarray gene expression profiles. Format: cell-based, human. The conditions noted are these: SAHA (200 μM), Largazole (20 nM), Example 1 (20 nM). On the procedure:
FIG. 9A illustrates hierarchical clustering and heatmaps of changes in gene expression profiles in the HCT116 cells with indicated treatment. FIGS. 9B and 9C illustrate Venn diagrams showing unique and shared gene sets whose expression levels changed by more than 2 fold upon exposure to the indicated treatment at 6 hr (FIG. 9B) and 24 hr (FIG. 9C).
Expression values files for each sample were generated using the Robust Multichip Average (RMA) algorithm. Differential expression was determined using the R software package limma to generate linear models and empirical Bayesian statistics. Genes were considered differentially expressed if the P value, adjusted for multiple testing using the Benjamini and Hochberg method, was ≦5% and the log-2 fold change was […].
HCT116 cells were seeded in triplicate at approximately 60% confluency. […] Cells were incubated for 6 or 24 hours followed by a wash with phosphate-buffered saline. Total RNA was extracted using a RNeasy Mini RNA extraction kit (QIAGEN Inc., Valencia, Calif.) immediately after wash. Total RNA concentration was determined using a Lambda 800 UV/VIS spectrometer (PerkinElmer, Waltham, Mass.) and processed for labeling hybridization, wash, and scan at University of Colorado-Denver Health Sciences Center. Three GeneChip® Human Gene 1.0 ST (Affymetrix, Santa Clara, Calif.) arrays were used for each of the time points, cell types, and treatments for a total of 24 arrays. Expression values files for each sample were generated using the Robust Multichip Average (RMA) algorithm. Differential expression was determined using the R software package limma to generate linear models and empirical Bayesian statistics. Genes were considered differentially expressed if the P value, adjusted for multiple testing using the Benjamini and Hochberg method, was ≦5% and the log-2 fold change was […]. GeneSpring GX (Agilent, Santa Clara, Calif.) software was used for hierarchical clustering and generating heatmaps.

The next assay has as its system MDA-MB231. The assay is described as follows: Cell growth inhibition, crystal violet cell viability assay. Format: cell-based. The conditions noted are these: Homo sapiens, read-out: Cell Growth Inhibition GI50, MDA-MB231. On the procedure:
(§1) Comparative analysis of the cytotoxic effect of largazole in human cancer cell lines HCT116, SW480 and MDA-MB231. HME were used as control. 8,000 cells were plated in 96-well plates where rows 1 and 10 were treated with DMSO, row 2 had no cells to establish background levels, rows 3-9 contained decreasing concentrations of compound. Cells were incubated with largazole for 48 hours, followed by staining with crystal violet dye. The absorbance at 588 nm was measured using a Tecan Sail re II plate reader. Experiments were performed in replicates of six, and concentration-response curves were generated by nonlinear least square regression analysis of the data using GraphPad Prism (San Diego, Calif.). The growth inhibition (GI50) for each compound was defined as a concentration of drug leading to a 50% reduction in A588 compared with controls
(§2) SW480, HCT116, and MDA-MB231 cell lines were purchased from the American Tissue Culture Collection. SW480 and MDA-MB231 cells were grown in Dulbecco's modified Eagle's medium supplemented with 10% fetal calf serum at 37° C. in a humidified 5% CO2 atmosphere. The HCT116 cell line was cultured in McCoy's 5a medium [ATCC; Cat. No. 30-2007] with 1.5 mM L-glutamine and 10% fetal bovine serum [ATCC; Cat. No. 30-2020]. HME cells (Clonetics, San Diego, Calif.; donor 4144) were cultured serum-free in Clonetics' recommended medium and supplements (52 μg/ml bovine pituitary extract, 0.5 μg/ml hydrocortisone, 0.01 μg/ml human epidermal growth factor, 5 μg/ml insulin, 50 μg/ml gentamicin and 50 ng/ml amphotericin-B).
(§3) 8,000 cells from different cancers were plated in flat-bottomed 96-well microplates. (Background control wells lacking the cells but containing the same volume of media were included in each assay plate). 24 hours after seeding, new media was added. To assess the in vitro cytotoxicity, each compound was dissolved in DMSO and prepared immediately before the experiments and was diluted into complete medium before addition to cell cultures. Test compounds were then added to the culture medium for designated decreasing concentrations (600 nM to 10 nM). Cell viability was determined 48 hours later using crystal violet dye (Sigma-Aldrich), which was solubilized in ethanol, and absorbance was measured at 588 nm using a Tecan Sail re II plate reader. Experiments were performed in replicates of six, and concentration-response curves were generated by nonlinear least square regression analysis of the data using GraphPad Prism (San Diego, Calif.). The growth inhibition (GI50) for each compound was defined as a concentration of drug leading to a 50% reduction in A588 compared with controls.
as §3, with “cancer or nontransformed cells” for “cancers”, “Safire” for “Sail re”, “concentration—response” for “concentration-response”

Another assay concerns HCT-116. Described as above. In kind it is cell-based. To be noted: Homo sapiens, read-out: Cell Growth Inhibition GI50, HCT-116. As to the method: as §1, §2, §3
as §3, with “cancer or nontransformed cells” for “cancers”, “Safire” for “Sail re”, “concentration—response” for “concentration-response”

For the next assay, the system named is HME. The assay can be described thus: Cell growth inhibition, crystal violet cell viability assay (control cells). Format: cell-based. The conditions noted are these: read-out: Cell Growth Inhibition GI50, HME. As to the method:
as §1
SW480, HCT116, and MDA-MB231 cell lines were purchased from the American Tissue Culture Collection. SW480 and MDA-MB231 cells were grown in Dulbecco's modified Eagle's medium supplemented with 10% fetal calf serum at 37° C. in a humidified 5% CO2 atmosphere. The HCT116 cell line was cultured in McCoy's 5a medium [ATCC; Cat. No. 30-2007] with 1.5 mM L-glutamine and 10% fetal bovine serum [ATCC; Cat. No. 30-2020]. […]
8,000 cells from different cancers were plated in flat-bottomed 96-well microplates. […] Cell viability was determined 48 hours later using crystal violet dye (Sigma-Aldrich), which was solubilized in ethanol, and absorbance was measured at 588 nm using a Tecan Sail re II plate reader. […]
8,000 cells from different cancer or nontransformed cells were plated in flat-bottomed 96-well microplates. […] Cell viability was determined 48 hours later using crystal violet dye (Sigma-Aldrich), which was solubilized in ethanol, and absorbance was measured at 588 nm using a Tecan Safire II plate reader. […]

The next assay has as its system HCT 116 cells. To be noted: Zeng et al. 2010; cited from earlier work.
Another assay has as its system HDAC. The conditions noted are these: read-out: IC50, HDAC inhibition in treated cells; cells treated with compound; Ying et al. 2008a; cited from earlier work.
Assay [3] has as its system HCT116 cells. To be noted: Ying et al. 2008b, read-out: GI50, antigrowth activity; cited from earlier work.
The subject of another assay is melanoma cell lines. The conditions noted are these: series of melanoma cell lines; Bowers et al. 2008; cited from earlier work.
[4] abbreviates: MDA-MB-231, MDA-MB231, 48 hours, crystal violet, A588.
Setting [5] is: HCT-116, 48 hours, crystal violet, A588.
[6] abbreviates: HME control cells, 48 hours, crystal violet, A588.

Like-named read-outs stand apart in the source and are kept apart here.

As for `CCCCCCCC(=O)SCC/C=C/[C@@H]1CC(=O)NCc2nc(cs2)C(=O)NC(C)(C)C(=O)N[C@@H](C(C)C)C(=O)O1` [Example 1, S-(E)-4-((7S,10S)-7-isopropyl-4,4-dimethyl-2,5,8,12-tetraoxo-9-oxa-16-thia-3,6,13,18-tetraazabicyclo[13.2.1]octadeca-1(17),15(18)-dien-10-yl)but-3-enyl octanethioate], the “Deacetylase inhibition, dose response of H3 acetylation (FIG. 8B)” value in assay [1] was “slightly more potent deacetylase inhibitors than largazole (L) and SAHA”. Moreover, the “# of Genes 2 Fold-Change in comparison to DMSO control” value is listed as 421 in the assay on HCT116 cells [2] (6 hr) and 174 in the assay with HCT116 cells [2] (24 hr). For the same compound, the GI50 is 53 nM with MDA-MB231 (setting [4]), 16 ± 2 nM with HCT-116 (setting [5]) and ≥ 600 nM in the assay on HME (setting [6]).

Turning to `CCCCCCCC(=O)SCC/C=C/[C@@H]1CC(=O)NCc2nc(co2)C(=O)NC(C)(C)C(=O)N[C@@H](C)C(=O)O1` [Example 4, S-(E)-4-((7S,10S)-4,4,7-trimethyl-2,5,8,12-tetraoxo-9,16-dioxa-3,6,13,18-tetraazabicyclo[13.2.1]octadeca-1(17),15(18)-dien-10-yl)but-3-enyl octanethioate], the GI50 in the assay on MDA-MB231 (setting [4]) was 53 ± 3 nM; with HCT-116 (setting [5]), 17 nM; with HME (setting [6]), ≥ 600 nM.

As to `CCCCCCCC(=O)SCC/C=C/[C@@H]1CC(=O)NCc2nc(cs2)C2=N[C@@](C)(CS2)C(=O)N[C@@H](C(C)C)C(=O)O1` [Largazole], the “# of Genes 2 Fold-Change in comparison to DMSO control” value in the assay with HCT116 cells [2] (6 hr) is recorded as 529; in the assay on HCT116 cells [2] (24 hr), 566. Further, the GI50 in the assay on MDA-MB231 (MDA-MB-231, 48 h) is 71 ± 8 nM; with HCT-116 (HCT-116, 48 h), 28 nM; in the assay on HME (48 h) it was ≥ 600 nM.

Turning to `CCCCCCCC(=O)SCCC=CC1CC(=O)NCc2nc(cs2)C2=NC(C)(CS2)C(=O)NC(CC(C)C)C(=O)O1` (stereo not shown) [Leu 1], in the assay on HCT 116 cells, the GI50 is 560 nM.

`CCCCCCCC(=O)SCCC=CC1CC(=O)NCc2nc(cs2)C2=NC(C)(CS2)C(=O)NC(Cc2ccccc2)C(=O)O1` (stereo not shown) [Phe 1]: in the assay with HCT 116 cells, the GI50 is 260 nM.

In the case of largazole thiol, the IC50 with HDAC is 209 nM; in the assay on melanoma cell lines, 380 to 2600 nM. For the same compound, the GI50 with HCT116 cells [3] was 38 nM.

The term GI50 denotes the concentration that inhibits growth by half. Broadly, the IC50 is the concentration that gives 50% inhibition.
